Experimental data taken from patent US20260067245A1, “METHODS AND COMPOSITIONS FOR TUMOR THERAPY” (MEMORIAL SLOAN KETTERING CANCER CENTER, priority 2022, published 2026).
Entries after “also recorded” stand apart in the source; their conditions may differ.

Tested on: B16F10 cells
Experiment: mouse bilateral tumor model, B16 murine melanoma (one tumor injected, contralateral not injected)
Assay type: in vivo
Procedure: By injecting only one of two tumors throughout the course of the experiment it is possible to separate the effect of the injected tumor from the “abscopal” effect on the distant non-injected tumor. Once treatment begins, tumors are measured twice weekly for at least 90 days.
Also, unless indicated otherwise, controls were treated with isotype control antibodies and vehicle only. Furthermore, unless indicated otherwise, all experiments were performed using the mouse bilateral tumor model described below and summarized in FIG. 2.
The animals used had large tumors in two opposite flanks. One tumor was injected while the second remained non-injected (FIG. 2), allowing separate analysis of the effect at the injected tumor from the so-called ‘abscopal’ effect at the non-injected tumor, in order to understand how this treatment could benefit patients with metastatic cancer. […] C57BL/6 mice were initially implanted with 5×10^5 syngeneic B16F10 cells intra-dermally in bilateral flanks. 8 days post tumor cell implantation, when bilateral tumors measured ˜0.5 cm, intratumoral (IT) treatment with various test agents was initiated together with intraperitoneal (IP) anti-PD-1 mAb. Treatment was administered twice weekly for 4 weeks into one of the bilateral tumors. The contralateral tumor remained un-injected for the duration of the experiment.
8 days post tumor cell implantation, when bilateral tumors measured ˜0.5 cm, intratumoral (IT) treatment with agents selected to activate APCs was initiated together with intraperitoneal (IP) anti-PD-1 mAb. Treatment was administered twice weekly for 4 weeks into one of the bilateral tumors. The contralateral tumor remained un-injected for the duration of the experiment (see FIG. 2 for schematic of experimental protocol).
These nanoparticles were administered to animals receiving 250 μg intraperitoneal anti-PD-1 (RMP1-14) concurrently. Non-formulated control animals received mixtures of MPL (5 μg) and FGK45 (20 μg) injected intratumorally with RMP1-14 delivered intraperitoneally. Anti-PD-1-only control animals received 250 μg of intraperitoneal RMP1-14 alone. Isotype/vehicle control animals received isotype control mAbs and vehicle corresponding to the nanoparticle-treated group.

O=C1[O][Pt]2([NH][C@@H]3CCCC[C@H]3[NH]2)[O]C1=O [oxaliplatin]
survival (concurrent systemic (IP) addition to intratumoral MPL, anti-IL10R and anti-CD40 (41040)): increases survival

PolyIC
activity when substituted for MPL in the regimen (FIG. 35B, bilateral tumor model): could be substituted for MPL; also recorded: can be substituted for MPL, albeit possibly with slightly reduced activity
